#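 Interpolation was linear, between the two tested concentrations surrounding the appropriate level; five concentrations were tested over 48 hours in 96-well plates. TGI is the concentration that stops growth completely.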
# System: P388/ADR leukemia
# Assay: NCI tumour cell line growth inhibition, 48 h
smiles,measurement,value
CC1OC1C(=O)C1(O)C(C)C(O)C23OC2(C(O)c2c(O)cccc2C3=O)C1O (stereo unspecified),TGI,425 nM
